Assay results as given in US11040981B2, “Pyrrolotriazine compounds and methods of inhibiting TAM kinases” (Syros Pharmaceuticals, Inc., priority 2017, dated 2021).

Experiments:
MERTK = target: T1, MERTK (Homo sapiens, UniProt Q12866); experiment: TR-FRET kinase activity assay, MERTK; type: biochemical; settings: for IC50: TR-FRET activity assay, ATP at Km, 60 minutes, read-out: Mer IC50
T1 sequence (Q12866 21-999): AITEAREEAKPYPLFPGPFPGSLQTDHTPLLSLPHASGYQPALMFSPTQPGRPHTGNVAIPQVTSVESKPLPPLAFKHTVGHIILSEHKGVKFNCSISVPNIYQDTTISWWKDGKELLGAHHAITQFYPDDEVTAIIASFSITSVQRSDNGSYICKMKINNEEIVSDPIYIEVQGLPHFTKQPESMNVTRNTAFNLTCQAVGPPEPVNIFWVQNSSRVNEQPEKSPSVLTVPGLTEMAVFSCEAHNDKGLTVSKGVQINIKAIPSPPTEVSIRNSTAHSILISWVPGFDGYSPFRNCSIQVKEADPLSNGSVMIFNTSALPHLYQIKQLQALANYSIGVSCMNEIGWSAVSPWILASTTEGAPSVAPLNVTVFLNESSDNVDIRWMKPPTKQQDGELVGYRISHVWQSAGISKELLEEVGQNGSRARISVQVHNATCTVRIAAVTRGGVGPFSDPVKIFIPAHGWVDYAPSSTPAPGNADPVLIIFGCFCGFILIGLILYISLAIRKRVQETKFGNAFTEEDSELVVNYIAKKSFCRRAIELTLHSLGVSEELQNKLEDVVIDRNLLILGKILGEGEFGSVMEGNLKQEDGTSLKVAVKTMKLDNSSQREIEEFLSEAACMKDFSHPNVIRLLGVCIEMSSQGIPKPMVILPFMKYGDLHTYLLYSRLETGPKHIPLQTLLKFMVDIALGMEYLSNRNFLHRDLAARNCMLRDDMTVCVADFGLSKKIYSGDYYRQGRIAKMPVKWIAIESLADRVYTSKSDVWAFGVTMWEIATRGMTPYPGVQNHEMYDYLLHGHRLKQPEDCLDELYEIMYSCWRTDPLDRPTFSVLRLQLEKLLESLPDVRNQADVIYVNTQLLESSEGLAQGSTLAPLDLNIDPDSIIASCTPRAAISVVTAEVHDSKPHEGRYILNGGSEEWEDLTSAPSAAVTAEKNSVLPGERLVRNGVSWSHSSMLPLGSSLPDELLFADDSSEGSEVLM
Summary of the method: (§1)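 IC50 reflects the drop in TR-FRET between Eu anti-phosphotyrosine antibody and labelled peptide after a 60-minute room-temperature reaction. Buffer was 50 mM HEPES pH 7.5 with 10 mM MgCl2, 1 mM EGTA, 0.01% Brij 35 and 1 mM DTT, with ATP at Km per enzyme and EDTA quench.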

FLT3 = target: T2, FLT3 (Homo sapiens, UniProt P36888); experiment: TR-FRET kinase activity assay, FLT3; type: biochemical; settings: ATP at Km, 60 minutes
T2 sequence (P36888 27-993): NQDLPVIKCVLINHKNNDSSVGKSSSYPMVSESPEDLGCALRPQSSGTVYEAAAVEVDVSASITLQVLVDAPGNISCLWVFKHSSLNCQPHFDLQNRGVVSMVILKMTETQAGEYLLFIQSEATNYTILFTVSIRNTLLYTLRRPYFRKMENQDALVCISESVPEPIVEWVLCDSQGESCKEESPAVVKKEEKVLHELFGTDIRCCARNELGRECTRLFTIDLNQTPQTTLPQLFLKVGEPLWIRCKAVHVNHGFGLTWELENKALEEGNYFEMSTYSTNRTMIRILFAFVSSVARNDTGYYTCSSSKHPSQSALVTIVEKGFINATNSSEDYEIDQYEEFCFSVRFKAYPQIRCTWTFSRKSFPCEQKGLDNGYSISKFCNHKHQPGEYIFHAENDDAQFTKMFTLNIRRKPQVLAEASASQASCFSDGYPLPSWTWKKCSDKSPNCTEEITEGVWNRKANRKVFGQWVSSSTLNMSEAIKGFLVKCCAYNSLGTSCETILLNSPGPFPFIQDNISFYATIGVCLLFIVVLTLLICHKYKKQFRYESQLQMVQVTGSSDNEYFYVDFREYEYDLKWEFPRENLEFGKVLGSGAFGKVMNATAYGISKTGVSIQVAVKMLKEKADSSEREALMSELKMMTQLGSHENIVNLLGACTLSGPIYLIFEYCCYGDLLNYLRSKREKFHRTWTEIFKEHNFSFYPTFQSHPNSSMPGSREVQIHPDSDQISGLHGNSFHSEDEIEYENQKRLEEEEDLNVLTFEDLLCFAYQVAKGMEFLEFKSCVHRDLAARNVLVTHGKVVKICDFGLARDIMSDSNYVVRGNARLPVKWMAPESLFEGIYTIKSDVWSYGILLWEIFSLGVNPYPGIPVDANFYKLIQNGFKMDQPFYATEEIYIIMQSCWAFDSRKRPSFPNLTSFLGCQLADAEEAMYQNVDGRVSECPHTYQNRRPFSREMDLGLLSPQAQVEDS
Summary of the method: as §1

[1] = ratio of Mer to FLT3: FLT3 IC50/Mer IC50
[2] = ratio calculated as FLT3 IC50/Mer IC50

SMILES | IC50 (MERTK) | FLT3/Mer ratio (FLT3 IC50/Mer IC50) (MERTK; [1]) | IC50 (FLT3) | FLT3/Mer ratio (FLT3 IC50/Mer IC50) (MERTK; [2])
COC[C@H](C)Nc1ncc2c(-c3ccc(CN4CCOCC4)cc3)cc([C@H]3CC[C@@H](O)CC3)n2n1 [Compound 163, (cis)-4-(2-(((S)-1-methoxypropan-2-yl)amino)-5-(4-(morpholinomethyl)phenyl)pyrrolo[2,1-f][1,2,4]triazin-7-yl)cyclohexanol] | ≤ 100 nM | ++ (“++” represents a ratio of between 10 and 100) | 100 to 1000 nM | –
COCC(C)Nc1ncc2c(-c3ccc(C(C)N4CCOCC4)cc3)cc(C3CCC(O)CC3)n2n1 (stereo not drawn) [Compound 181] | ≤ 100 nM | ++ (“++” represents a ratio of between 10 and 100) | ≤ 100 nM | –
COC[C@H](C)Nc1ncc2c([C@H]3CC[C@H](C(=O)N4CCN(C)CC4)CC3)cc([C@H]3CC[C@H](O)CC3)n2n1 [Compound 606] | ≤ 100 nM | – | 1000 to 10000 nM | +++ (“+++” represents a ratio of >100)
COC[C@H](C)Nc1ncc2c(-c3ccc([C@H](C)N4CCOCC4)cc3)cc([C@H]3CC[C@H](O)CC3)n2n1 [Compound 157] | ≤ 100 nM | ++ (“++” represents a ratio of between 10 and 100) | ≤ 100 nM | –
COC[C@H](C)Nc1ncc2c([C@H]3CC[C@@H](C(=O)N4CCN(C)CC4)CC3)cc([C@H]3CC[C@H](O)CC3)n2n1 [Compound 607] | ≤ 100 nM | – | 1000 to 10000 nM | +++ (“+++” represents a ratio of >100)
COC[C@H](C)Nc1ncc2c(-c3ccc(CN4CCN(C(C)=O)CC4)cc3)cc([C@H]3CC[C@H](O)CC3)n2n1 [Compound 150] | ≤ 100 nM | ++ (“++” represents a ratio of between 10 and 100) | 100 to 1000 nM | –
C[C@@H](COC(F)F)Nc1ncc2c(-c3ccnc(N4CCOC(C(C)(C)O)C4)c3)cc([C@H]3CC[C@H](O)CC3)n2n1 (stereo partly drawn) [Compound 598] | ≤ 100 nM | – | 100 to 1000 nM | +++ (“+++” represents a ratio of >100)
COC[C@H](C)Nc1ncc2c(-c3cnn(C4COC4)c3)cc([C@H]3CC[C@@](O)(C(C)C)CC3)n2n1 [Compound 618] | ≤ 100 nM | – | 100 to 1000 nM | +++ (“+++” represents a ratio of >100)
COC[C@H](C)Nc1ncc2c(-c3cnn(C(C)(C)c4nnc(N5CCOCC5)o4)c3)cc(C3CCC(O)CC3)n2n1 (stereo partly drawn) [Compound 631] | ≤ 100 nM | – | 1000 to 10000 nM | +++ (“+++” represents a ratio of >100)
COC[C@H](C)Nc1ncc2c(-c3cccc(CN4CCCC4)c3)cc([C@H]3CC[C@H](O)CC3)n2n1 [Compound 179] | ≤ 100 nM | +++ (“+++” represents a ratio of >100) | 100 to 1000 nM | –
[2H]C([2H])([2H])OCC(C)Nc1ncc2c(-c3cnn(C4COC4)c3)cc(C3CCC(O)CC3)n2n1 (stereo not drawn) [Compound 630] | ≤ 100 nM | – | 100 to 1000 nM | +++ (“+++” represents a ratio of >100)
COC[C@H](C)Nc1ncc2c(-c3cnn(CCN4CCOCC4)c3)cc([C@H]3CC[C@H](O)CC3)n2n1 [Compound 153] | ≤ 100 nM | +++ (“+++” represents a ratio of >100) | 1000 to 10000 nM | –
COC[C@H](C)Nc1ncc2c(-c3ccc([C@@H](C)N4CCOCC4)cc3)cc([C@H]3CC[C@H](O)CC3)n2n1 [Compound 156] | ≤ 100 nM | ++ (“++” represents a ratio of between 10 and 100) | 100 to 1000 nM | –
